Structures can show the parent of a compound that is named as a salt.
How the values were obtained:
Conditions in all cases: exposure time: 72 h
E13 [1] = patient-derived glioblastoma stem cells of classical subtype; assay: surviving fraction (nuclei count normalised to DMSO); higher = more cells surviving (less toxic)
E21 [2] = patient-derived glioblastoma stem cells of mesenchymal subtype; assay: as above
E28 [3] = patient-derived glioblastoma stem cells of classical subtype; assay: as above
E31 [4] = patient-derived glioblastoma stem cells of proneural subtype; assay: as above
E34 [5] = patient-derived glioblastoma stem cells of proneural subtype; assay: as above
E57 [6] = patient-derived glioblastoma stem cells of mesenchymal subtype; assay: as above
FT3469 [7] = normal neural stem cell line; assay: as above
E13 [8] = assay: phenotypic distance (Euclidean, principal components) from DMSO controls (arbitrary units); higher = stronger morphological change
E21 [9] = assay: as above
E28 [10] = assay: as above
E31 [11] = assay: as above
E34 [12] = assay: as above
E57 [13] = assay: as above
FT3469 [14] = assay: as above
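Throughout, for phenotypic distance (Euclidean, principal components) from DMSO controls: cell Painting imaging in 384-well plates, CellProfiler features reduced to at least 20 principal components, Euclidean distance versus same-plate DMSO vehicle wells (0.1% v/v), median over six images per well.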
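Throughout, for surviving fraction (nuclei count normalised to DMSO): nuclei counted by high-content imaging of Hoechst-stained cells in laminin-coated 384-well plates, relative to 0.1% DMSO vehicle wells, with staurosporine as cell-death control.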

CC[C@H]1CN2CCc3cc(OC)c(OC)cc3[C@@H]2C[C@@H]1C[C@H]1NCCc2cc(OC)c(OC)cc21 [Emetine dihydrochloride hydrate]
Conditions	phenotypic distance	surviving fraction
E13 [1], 4.1 nM	–	0.771
E13 [1], 12.3 nM	–	0.923
E13 [1], 37 nM	–	0.769
E13 [1], 111.1 nM	–	0.481
E13 [1], 333.3 nM	–	0.319
E13 [1], 1000 nM	–	0.241
E13 [1], 3000 nM	–	0.2
E13 [8], 4.1 nM	1.31	–
E13 [8], 12.3 nM	0.882	–
E13 [8], 37 nM	1.91	–
E13 [8], 111.1 nM	4.48	–
E13 [8], 333.3 nM	4.34	–
E13 [8], 1000 nM	5.43	–
E13 [8], 3000 nM	6.58	–
E21 [2], 4.1 nM	–	0.907
E21 [2], 12.3 nM	–	0.921
E21 [2], 37 nM	–	0.816
E21 [2], 111.1 nM	–	0.347
E21 [2], 333.3 nM	–	0.223
E21 [2], 1000 nM	–	0.153
E21 [2], 3000 nM	–	0.173
E21 [9], 4.1 nM	1.08	–
E21 [9], 12.3 nM	0.979	–
E21 [9], 37 nM	0.851	–
E21 [9], 111.1 nM	6.33	–
E21 [9], 333.3 nM	4.77	–
E21 [9], 1000 nM	3.91	–
E21 [9], 3000 nM	3.66	–
E28 [3], 4.1 nM	–	0.969
E28 [3], 12.3 nM	–	1.05
E28 [3], 37 nM	–	0.901
E28 [3], 111.1 nM	–	0.385
E28 [3], 333.3 nM	–	0.258
E28 [3], 1000 nM	–	0.315
E28 [3], 3000 nM	–	0.3
E28 [10], 4.1 nM	0.561	–
E28 [10], 12.3 nM	0.727	–
E28 [10], 37 nM	1.13	–
E28 [10], 111.1 nM	2.77	–
E28 [10], 333.3 nM	3.25	–
E28 [10], 1000 nM	3.1	–
E28 [10], 3000 nM	3.67	–
E31 [4], 4.1 nM	–	0.927
E31 [4], 12.3 nM	–	0.842
E31 [4], 37 nM	–	0.667
E31 [4], 111.1 nM	–	0.313
E31 [4], 333.3 nM	–	0.143
E31 [4], 1000 nM	–	0.179
E31 [4], 3000 nM	–	0.101
E31 [11], 4.1 nM	1.22	–
E31 [11], 12.3 nM	1.2	–
E31 [11], 37 nM	2.2	–
E31 [11], 111.1 nM	5.26	–
E31 [11], 333.3 nM	5.72	–
E31 [11], 1000 nM	4.54	–
E31 [11], 3000 nM	5.99	–
E34 [5], 4.1 nM	–	0.908
E34 [5], 12.3 nM	–	0.885
E34 [5], 37 nM	–	0.818
E34 [5], 111.1 nM	–	0.497
E34 [5], 333.3 nM	–	0.404
E34 [5], 1000 nM	–	0.387
E34 [5], 3000 nM	–	0.426
E34 [12], 4.1 nM	0.73	–
E34 [12], 12.3 nM	0.706	–
E34 [12], 37 nM	0.904	–
E34 [12], 111.1 nM	2.93	–
E34 [12], 333.3 nM	3.91	–
E34 [12], 1000 nM	4.94	–
E34 [12], 3000 nM	4.59	–
E57 [6], 4.1 nM	–	0.975
E57 [6], 12.3 nM	–	0.918
E57 [6], 37 nM	–	0.84
E57 [6], 111.1 nM	–	0.354
E57 [6], 333.3 nM	–	0.157
E57 [6], 1000 nM	–	0.173
E57 [6], 3000 nM	–	0.14
E57 [13], 4.1 nM	1.02	–
E57 [13], 12.3 nM	1.01	–
E57 [13], 37 nM	0.848	–
E57 [13], 111.1 nM	5.15	–
E57 [13], 333.3 nM	6.55	–
E57 [13], 1000 nM	6.5	–
E57 [13], 3000 nM	6.32	–
FT3469 [7], 4.1 nM	–	1.12
FT3469 [7], 12.3 nM	–	1.05
FT3469 [7], 37 nM	–	0.997
FT3469 [7], 111.1 nM	–	0.676
FT3469 [7], 333.3 nM	–	0.511
FT3469 [7], 1000 nM	–	0.492
FT3469 [7], 3000 nM	–	0.535
FT3469 [14], 4.1 nM	0.688	–
FT3469 [14], 12.3 nM	0.903	–
FT3469 [14], 37 nM	0.792	–
FT3469 [14], 111.1 nM	3.79	–
FT3469 [14], 333.3 nM	3.87	–
FT3469 [14], 1000 nM	3.19	–
FT3469 [14], 3000 nM	3.42	–

CCCCCCCCCCCCCC(=O)O[C@@H]1[C@@H](C)[C@@]2(O)[C@@H](C=C(CO)C[C@]3(O)C(=O)C(C)=C[C@@H]23)[C@@H]2C(C)(C)[C@]12OC(C)=O [Phorbol 12-myristate 13-acetate]
Conditions	phenotypic distance	surviving fraction
E13 [1], 4.1 nM	–	0.681
E13 [1], 12.3 nM	–	0.64
E13 [1], 37 nM	–	0.728
E13 [1], 111.1 nM	–	0.596
E13 [1], 333.3 nM	–	0.708
E13 [1], 1000 nM	–	0.576
E13 [1], 3000 nM	–	0.47
E13 [8], 4.1 nM	2.62	–
E13 [8], 12.3 nM	2.5	–
E13 [8], 37 nM	2.61	–
E13 [8], 111.1 nM	2.82	–
E13 [8], 333.3 nM	1.86	–
E13 [8], 1000 nM	2.26	–
E13 [8], 3000 nM	2.58	–
E21 [2], 4.1 nM	–	0.677
E21 [2], 12.3 nM	–	0.88
E21 [2], 37 nM	–	0.786
E21 [2], 111.1 nM	–	0.68
E21 [2], 333.3 nM	–	0.75
E21 [2], 1000 nM	–	0.775
E21 [2], 3000 nM	–	0.0234
E21 [9], 4.1 nM	2.4	–
E21 [9], 12.3 nM	2.57	–
E21 [9], 37 nM	2.24	–
E21 [9], 111.1 nM	2.1	–
E21 [9], 333.3 nM	2.01	–
E21 [9], 1000 nM	1.76	–
E21 [9], 3000 nM	6.77	–
E28 [3], 4.1 nM	–	0.75
E28 [3], 12.3 nM	–	0.65
E28 [3], 37 nM	–	0.725
E28 [3], 111.1 nM	–	0.795
E28 [3], 333.3 nM	–	0.815
E28 [3], 1000 nM	–	0.668
E28 [3], 3000 nM	–	0.383
E28 [10], 4.1 nM	2.11	–
E28 [10], 12.3 nM	1.89	–
E28 [10], 37 nM	1.72	–
E28 [10], 111.1 nM	1.44	–
E28 [10], 333.3 nM	1.52	–
E28 [10], 1000 nM	1.21	–
E28 [10], 3000 nM	4.49	–
E31 [4], 4.1 nM	–	1.07
E31 [4], 12.3 nM	–	1.06
E31 [4], 37 nM	–	1.23
E31 [4], 111.1 nM	–	1.01
E31 [4], 333.3 nM	–	1.07
E31 [4], 1000 nM	–	0.994
E31 [4], 3000 nM	–	0.0149
E31 [11], 4.1 nM	3.22	–
E31 [11], 12.3 nM	3.36	–
E31 [11], 37 nM	2.74	–
E31 [11], 111.1 nM	1.67	–
E31 [11], 333.3 nM	1.98	–
E31 [11], 1000 nM	1.94	–
E31 [11], 3000 nM	6.13	–
E34 [5], 4.1 nM	–	0.524
E34 [5], 12.3 nM	–	0.516
E34 [5], 37 nM	–	0.618
E34 [5], 111.1 nM	–	0.488
E34 [5], 333.3 nM	–	0.688
E34 [5], 1000 nM	–	0.48
E34 [5], 3000 nM	–	0.478
E34 [12], 4.1 nM	4.26	–
E34 [12], 12.3 nM	4.21	–
E34 [12], 37 nM	3.53	–
E34 [12], 111.1 nM	3.9	–
E34 [12], 333.3 nM	2.78	–
E34 [12], 1000 nM	2.96	–
E34 [12], 3000 nM	4.34	–
E57 [6], 4.1 nM	–	0.331
E57 [6], 12.3 nM	–	0.32
E57 [6], 37 nM	–	0.374
E57 [6], 111.1 nM	–	0.233
E57 [6], 333.3 nM	–	0.369
E57 [6], 1000 nM	–	0.367
E57 [6], 3000 nM	–	0.108
E57 [13], 4.1 nM	7.04	–
E57 [13], 12.3 nM	6.41	–
E57 [13], 37 nM	5.79	–
E57 [13], 111.1 nM	8.21	–
E57 [13], 333.3 nM	6.38	–
E57 [13], 1000 nM	6.18	–
E57 [13], 3000 nM	11.1	–
FT3469 [7], 4.1 nM	–	0.75
FT3469 [7], 12.3 nM	–	0.728
FT3469 [7], 37 nM	–	0.729
FT3469 [7], 111.1 nM	–	0.701
FT3469 [7], 333.3 nM	–	0.832
FT3469 [7], 1000 nM	–	0.791
FT3469 [7], 3000 nM	–	0.571
FT3469 [14], 4.1 nM	3.13	–
FT3469 [14], 12.3 nM	2.56	–
FT3469 [14], 37 nM	3.38	–
FT3469 [14], 111.1 nM	2.45	–
FT3469 [14], 333.3 nM	1.86	–
FT3469 [14], 1000 nM	2.16	–
FT3469 [14], 3000 nM	4.11	–

— the supplement of paper PMC13207355
